Measured values as given in DBAASP.
≈ marks a conversion by molar mass, not a printed value.

Key:
Experiment in all cases: ≥ marks a high value that may be exact or a test limit, other limits are often not marked, values filed in µg/mL are converted to µM
Salmonella typhimurium = test system: Salmonella typhimurium
Bacillus subtilis = test system: Bacillus subtilis
[1] = test system: Staphylococcus epidermidis
Escherichia coli = test system: Escherichia coli
Proteus vulgaris = test system: Proteus vulgaris
Streptococcus pyogenes = test system: Streptococcus pyogenes
Pseudomonas aeruginosa = test system: Pseudomonas aeruginosa
[2] = test system: Klebsiella pneumoniae KCTC 2208
[3] = test system: Pseudomonas aeruginosa ATCC 27853
[4] = test system: Acinetobacter baumannii KCTC 2508
Escherichia coli B = test system: Escherichia coli B
Staphylococcus aureus 1 = test system: Staphylococcus aureus 1
[5] = test system: Micrococcus luteus CCM 144
Bacillus subtilis 168 = test system: Bacillus subtilis 168
[6] = test system: Candida albicans F7-39/IDE99
[7] = test system: Staphylococcus aureus ATCC 43300
Staphylococcus aureus = test system: Staphylococcus aureus
Proteus mirabilis = test system: Proteus mirabilis
[8] = test system: Pseudomonas aeruginosa ATCC 15442
Escherichia coli D31 = test system: Escherichia coli D31
[9] = test system: Bacillus subtilis ATCC 6633
Staphylococcus aureus MR = test system: Staphylococcus aureus MR
[10] = test system: Staphylococcus aureus ATCC 25923
[11] = test system: Streptococcus mutans ATCC 25175
[12] = test system: Candida albicans ATCC 10231
[13] = test system: Escherichia coli ATCC 25922
[14] = test system: Pseudomonas aeruginosa PAO1
Candida albicans MDM8 = test system: Candida albicans MDM8
Escherichia coli SBS 363 = test system: Escherichia coli SBS 363
Micrococcus luteus A270 = test system: Micrococcus luteus A270

In the case of CC[C@H](C)[C@H](NC(=O)[C@H](Cc1ccc(O)cc1)NC(=O)[C@@H](NC(=O)[C@@H]1CCCN1C(=O)[C@@H](N)CCCN=C(N)N)C(C)C)C(=O)N1CCC[C@H]1C(=O)N[C@@H](CCC(N)=O)C(=O)N1CCC[C@H]1C(=O)N[C@@H](CCCN=C(N)N)C(=O)N1CCC[C@H]1C(=O)N1CCC[C@H]1C(=O)N[C@@H](Cc1cnc[nH]1)C(=O)N1CCC[C@H]1C(=O)N[C@@H](CCCN=C(N)N)C(=O)N[C@@H](CC(C)C)C(=O)O [RPVYIPQPRPPHPRL], the MIC (Salmonella typhimurium) is reported as 0.5 µM (≈ 0.912 µg/mL), the MIC (Bacillus subtilis) is reported as ≥ 64 µM and the MIC [1] is reported as ≥ 64 µM. For the same compound, the MIC (Escherichia coli) was 16 µM (≈ 29.2 µg/mL), the MIC (Proteus vulgaris) was ≥ 64 µM and the MIC (Streptococcus pyogenes) was ≥ 64 µM. It also gave an MIC (Pseudomonas aeruginosa) of 64 µM (≈ 117 µg/mL).

In the case of CC(C)C[C@H](NC(=O)[C@H](CCCN=C(N)N)NC(=O)[C@@H]1CCCN1C(=O)[C@H](Cc1cnc[nH]1)NC(=O)[C@@H]1CCCN1C(=O)[C@@H]1CCCN1C(=O)[C@@H](N)CCCN=C(N)N)C(=O)O [RPPHPRL], the MIC (Salmonella typhimurium) is reported as ≥ 64 µM, the MIC (Bacillus subtilis) is reported as ≥ 64 µM and the MIC [1] is reported as ≥ 64 µM. The MIC (Escherichia coli) was 64 µM (≈ 55.8 µg/mL), the MIC (Proteus vulgaris) was ≥ 64 µM and the MIC (Streptococcus pyogenes) was ≥ 64 µM. For the same compound, the MIC (Pseudomonas aeruginosa) was 64 µM (≈ 55.8 µg/mL).

CC[C@H](C)[C@H](N)C(=O)N[C@@H](C)C(=O)N[C@@H](CCCN=C(N)N)C(=O)N[C@@H](CCCN=C(N)N)C(=O)N[C@@H](C)C(=O)N[C@@H](CC(C)C)C(=O)N[C@@H](CCCCN)C(=O)N[C@@H](CCCCN)C(=O)N[C@@H](C)C(=O)N[C@@H](CCCCN)C(=O)N[C@@H](CCCN=C(N)N)C(=O)N[C@@H](C)C(=O)N[C@@H](C)C(=O)N[C@@H](Cc1cnc[nH]1)C(=O)N[C@H](C(=O)N[C@H](C(=O)N1CCC[C@H]1C(=O)N[C@@H](CCC(N)=O)C(=O)N[C@@H](CS)C(=O)N[C@@H](CCCCN)C(=O)N[C@@H](CCCCN)C(=O)N[C@@H](Cc1ccccc1)C(=O)NCC(=O)N[C@@H](CCCN=C(N)N)C(=O)N[C@@H](CCCN=C(N)N)C(N)=O)[C@@H](C)CC)[C@@H](C)O [IARRALKKAKRAAHTIPQCKKFGRR] was tested, and the MIC [2] was 4 µM (≈ 11.6 µg/mL), the MIC [3] was 2 µM (≈ 5.81 µg/mL) and the MIC [4] was 4 µM (≈ 11.6 µg/mL).

With CC[C@H](C)[C@H](NC(=O)CN)C(=O)N[C@@H](CC(C)C)C(=O)N[C@@H](CO)C(=O)N[C@@H](CO)C(=O)N[C@@H](CC(C)C)C(=O)N[C@@H](Cc1c[nH]c2ccccc12)C(=O)N[C@@H](CCCCN)C(=O)N[C@@H](CCCCN)C(=O)N[C@@H](CC(C)C)C(=O)N[C@@H](CCCCN)C(=O)N[C@@H](CCCCN)C(=O)N[C@H](C(=O)N[C@H](C(=O)N[C@@H](C)C(=O)N[C@@H](CCCCN)C(N)=O)[C@@H](C)CC)[C@@H](C)CC [GILSSLWKKLKKIIAK] the MIC (Escherichia coli B) was 3.4 µM (≈ 6.21 µg/mL), the MIC (Staphylococcus aureus 1) was 2 µM (≈ 3.65 µg/mL) and the MIC [5] was 3 µM (≈ 5.48 µg/mL). It also gave an MIC (Bacillus subtilis 168) of 7 µM (≈ 12.8 µg/mL), an MIC [6] of 11 µM (≈ 20.1 µg/mL) and an MIC [3] of 5.3 µM (≈ 9.67 µg/mL). The MIC [1] was 2 µM (≈ 3.65 µg/mL), the MIC [7] was 5.3 µM (≈ 9.67 µg/mL) and the MIC (Staphylococcus aureus) was 5 µM (≈ 9.13 µg/mL). For the same compound, the MIC (Pseudomonas aeruginosa) was 8.8 µM (≈ 16.1 µg/mL).

With CC[C@H](C)[C@H](NC(=O)CN)C(=O)N[C@@H](CC(C)C)C(=O)N[C@@H](CO)C(=O)N[C@@H](CO)C(=O)N[C@@H](CC(C)C)C(=O)N[C@@H](CC(C)C)C(=O)N[C@@H](CCCCN)C(=O)N[C@@H](CCCCN)C(=O)N[C@@H](Cc1c[nH]c2ccccc12)C(=O)N[C@@H](CCCCN)C(=O)N[C@@H](CCCCN)C(=O)N[C@H](C(=O)N[C@H](C(=O)N[C@@H](C)C(=O)N[C@@H](CCCCN)C(N)=O)[C@@H](C)CC)[C@@H](C)CC [GILSSLLKKWKKIIAK] the MIC (Escherichia coli B) was 7.5 µM (≈ 13.7 µg/mL), the MIC (Staphylococcus aureus 1) was 7.8 µM (≈ 14.2 µg/mL) and the MIC [5] was 3 µM (≈ 5.48 µg/mL). It also gave an MIC (Bacillus subtilis 168) of 7 µM (≈ 12.8 µg/mL), an MIC [6] of 11 µM (≈ 20.1 µg/mL) and an MIC [3] of 5 µM (≈ 9.13 µg/mL). The MIC [1] was 2.7 µM (≈ 4.93 µg/mL), the MIC [7] was 20 µM (≈ 36.5 µg/mL) and the MIC (Staphylococcus aureus) was 20 µM (≈ 36.5 µg/mL). It also gave an MIC (Pseudomonas aeruginosa) of 7.1 µM (≈ 13 µg/mL).

CC[C@H](C)[C@H](N)C(=O)N[C@@H](C)C(=O)N[C@@H](CCCN=C(N)N)C(=O)N[C@@H](CCCN=C(N)N)C(=O)N[C@@H](CC(N)=O)C(=O)N[C@@H](CC(C)C)C(=O)N[C@@H](CS)C(=O)N[C@@H](C)C(=O)N[C@@H](CO)C(=O)N[C@@H](CC(C)C)C(=O)N[C@@H](CCCN=C(N)N)C(=O)N[C@@H](C)C(=O)N[C@@H](CCCN=C(N)N)C(=O)N[C@@H](Cc1cnc[nH]1)C(=O)N[C@H](C(=O)N[C@H](C(=O)N1CCC[C@H]1C(=O)N[C@@H](CCC(N)=O)C(=O)N[C@@H](CS)C(=O)N[C@@H](CCCCN)C(=O)N[C@@H](CCCCN)C(=O)N[C@@H](Cc1ccccc1)C(=O)NCC(=O)N[C@@H](CCCN=C(N)N)C(=O)N[C@@H](CCCN=C(N)N)C(N)=O)[C@@H](C)CC)[C@@H](C)O [IARRNLCASLRARHTIPQCKKFGRR] was tested, and the MIC [2] was 8 µM (≈ 23.6 µg/mL), the MIC [3] was 8 µM (≈ 23.6 µg/mL) and the MIC [4] was 16 µM (≈ 47.2 µg/mL).

NC(N)=NCCC[C@H](NC(=O)[C@H](CCCN=C(N)N)NC(=O)[C@H](CCCN=C(N)N)NC(=O)[C@H](CCCN=C(N)N)NC(=O)[C@H](CCCN=C(N)N)NC(=O)[C@H](CCCN=C(N)N)NC(=O)[C@H](CCCN=C(N)N)NC(=O)[C@H](CCCN=C(N)N)NC(=O)[C@H](Cc1c[nH]c2ccccc12)NC(=O)[C@H](Cc1c[nH]c2ccccc12)NC(=O)[C@H](Cc1c[nH]c2ccccc12)NC(=O)[C@@H](N)Cc1c[nH]c2ccccc12)C(=O)O [WWWWRRRRRRRR] was tested, and the MIC (Proteus mirabilis) was 31.8 µM (≈ 64 µg/mL), the MIC (Staphylococcus aureus) was 4.47 µM (≈ 9 µg/mL) and the MIC (Streptococcus pyogenes) was 0.124 µM (≈ 0.25 µg/mL). For the same compound, the MIC (Pseudomonas aeruginosa) was > 31.8 µM.

In the case of CC[C@H](C)[C@H](N)C(=O)N[C@@H](C)C(=O)N[C@@H](CCCN=C(N)N)C(=O)N[C@@H](CCCN=C(N)N)C(=O)N[C@@H](C)C(=O)N[C@@H](CC(C)C)C(=O)N[C@@H](CCCCN)C(=O)N[C@@H](CCCCN)C(=O)N[C@@H](CO)C(=O)N[C@@H](CC(C)C)C(=O)N[C@@H](CCCN=C(N)N)C(=O)N[C@@H](C)C(=O)N[C@@H](CCCN=C(N)N)C(=O)N[C@@H](Cc1cnc[nH]1)C(=O)N[C@H](C(=O)N[C@H](C(=O)N1CCC[C@H]1C(=O)N[C@@H](CCC(N)=O)C(=O)N[C@@H](CS)C(=O)N[C@@H](CCCCN)C(=O)N[C@@H](CCCCN)C(=O)N[C@@H](Cc1ccccc1)C(=O)NCC(=O)N[C@@H](CCCN=C(N)N)C(=O)N[C@@H](CCCN=C(N)N)C(N)=O)[C@@H](C)CC)[C@@H](C)O [IARRALKKSLRARHTIPQCKKFGRR], the MIC [2] is reported as 4 µM (≈ 12 µg/mL), the MIC [3] is reported as 8 µM (≈ 23.9 µg/mL) and the MIC [4] is reported as 4 µM (≈ 12 µg/mL).

Work on CC[C@H](C)[C@H](NC(=O)[C@H](CCCCN)NC(=O)[C@H](CCC(N)=O)NC(=O)[C@H](CC(C)C)NC(=O)[C@@H](N)Cc1ccccc1)C(=O)N[C@H](C(=O)NCC(=O)N[C@@H](C)C(=O)N[C@@H](CC(C)C)C(=O)NCC(=O)N[C@@H](CCCCN)C(=O)N[C@@H](CC(C)C)C(=O)N[C@@H](Cc1ccccc1)C(N)=O)[C@@H](C)CC [FLQKIIGALGKLF] yielded an MIC [8] of 6.2 µM (≈ 8.97 µg/mL), an MIC (Escherichia coli D31) of 12.5 µM (≈ 18.1 µg/mL) and an MIC [9] of 12.5 µM (≈ 18.1 µg/mL). The MIC (Staphylococcus aureus MR) was 6.2 µM (≈ 8.97 µg/mL), the MIC [10] was 1.6 µM (≈ 2.31 µg/mL) and the MIC [11] was 3.1 µM (≈ 4.49 µg/mL). It also gave an MIC [12] of 25 µM (≈ 36.2 µg/mL), an MIC [13] of 6.2 µM (≈ 8.97 µg/mL) and an MIC [14] of 12.5 µM (≈ 18.1 µg/mL). For the same compound, the MIC [7] was 6.2 µM (≈ 8.97 µg/mL).

CC[C@H](C)[C@H](NC(=O)[C@H](CC(C)C)NC(=O)[C@H](CCCCN)NC(=O)[C@H](CCCN=C(N)N)NC(=O)[C@H](Cc1ccccc1)NC(=O)[C@H](CC(C)C)NC(=O)[C@H](CO)NC(=O)[C@H](CC(C)C)NC(=O)[C@H](CC(C)C)NC(=O)[C@@H](N)CO)C(=O)N[C@H](C(N)=O)[C@@H](C)O [SLLSLFRKLIT] was tested, and the MIC (Candida albicans MDM8) was 1.56 µM (≈ 2.01 µg/mL), the MIC (Escherichia coli SBS 363) was 12.5 µM (≈ 16.1 µg/mL) and the MIC (Micrococcus luteus A270) was 1.56 µM (≈ 2.01 µg/mL).
